Measured values from article PMC5808195 (Frontiers in Pharmacology, 2018).
Counter-ions that a name gives are not always drawn. Like-named read-outs stand apart in the source and are kept apart here.

Key:
[1] = biological target: T1, rat cerebral neuronal membranes (histamine H1 binding sites) (Rattus norvegicus, UniProt P31390); assay: Competitive displacement of [^3H]pyrilamine binding, rat cerebral neuronal membranes; settings: for displacement of specific [^3H]pyrilamine binding (in words): rat cerebral neuronal membranes, 20 nM [^3H]pyrilamine
T1 construct: native receptors contained in rat cerebral neuronal membranes; from tissue; host or cells: cerebral tissue of male Wistar rats, membrane fraction (40,000 x g pellet)
T1 sequence (P31390 whole entry): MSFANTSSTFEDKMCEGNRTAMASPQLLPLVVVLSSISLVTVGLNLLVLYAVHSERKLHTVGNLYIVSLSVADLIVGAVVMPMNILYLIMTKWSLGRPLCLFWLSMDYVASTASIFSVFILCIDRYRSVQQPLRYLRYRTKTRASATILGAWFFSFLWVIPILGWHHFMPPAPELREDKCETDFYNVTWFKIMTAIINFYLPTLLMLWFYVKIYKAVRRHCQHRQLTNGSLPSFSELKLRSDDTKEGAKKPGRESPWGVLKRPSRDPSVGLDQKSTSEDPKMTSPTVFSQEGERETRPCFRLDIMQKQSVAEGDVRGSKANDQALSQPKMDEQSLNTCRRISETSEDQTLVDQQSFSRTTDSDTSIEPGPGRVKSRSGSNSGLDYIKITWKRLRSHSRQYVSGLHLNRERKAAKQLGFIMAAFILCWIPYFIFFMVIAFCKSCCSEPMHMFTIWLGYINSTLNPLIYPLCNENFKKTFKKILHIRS

[2] = biological target: T2, synthesized WT-HRH1 proteoglycerosomes (Homo sapiens, UniProt P35367)
T2 sequence (P35367 whole entry): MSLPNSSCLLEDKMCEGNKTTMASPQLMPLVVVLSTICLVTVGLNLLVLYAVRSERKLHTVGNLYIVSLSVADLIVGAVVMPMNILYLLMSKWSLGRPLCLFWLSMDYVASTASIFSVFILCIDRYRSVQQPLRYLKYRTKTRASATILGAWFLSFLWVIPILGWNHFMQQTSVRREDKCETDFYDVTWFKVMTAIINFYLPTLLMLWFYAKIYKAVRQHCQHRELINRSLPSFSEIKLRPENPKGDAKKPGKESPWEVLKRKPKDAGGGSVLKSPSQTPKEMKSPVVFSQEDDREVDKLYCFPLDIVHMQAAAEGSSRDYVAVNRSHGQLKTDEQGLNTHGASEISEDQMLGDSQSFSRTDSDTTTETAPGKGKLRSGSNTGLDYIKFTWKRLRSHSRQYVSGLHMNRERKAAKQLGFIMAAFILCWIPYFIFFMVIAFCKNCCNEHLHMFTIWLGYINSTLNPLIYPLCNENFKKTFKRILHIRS
Description: (§1) Eight different concentrations of each cold competitor were used in the competitive binding studies. […] The data are based on experiments performed in triplicate. The experimental conditions were the same as those used in the saturation studies.

[3] = biological target: T2, synthesized WT-HRH1 proteoglycerosomes; assay: biochemical
Description: as §1

| SMILES | displacement of specific [^3H]pyrilamine binding (in words) [1] | displacement of specific [^3H]pyrilamine binding (in words) [2] | Ki [1] [nM] | displacement of specific [^3H]pyrilamine binding (in words) ([2]; synthesized receptors, 20 nM [^3H]pyrilamine) | Ki [3] [nM] |
| --- | --- | --- | --- | --- | --- |
| C[C@@H](N)Cc1cnc[nH]1 [alpha methylhistamine, alpha-methylhistamine] | did not inhibit | did not inhibit |  |  |  |
| NC1=NCC2c3ccccc3Cc3ccccc3N12 (centres unmarked) [Epinastine, epinastine hydrochloride] | concentration-dependent inhibition |  | 0.288 ± 0.0615 | concentration-dependent inhibition | 0.332 ± 0.0989 |
| S=C(NC1CCCCC1)N1CCC(c2cnc[nH]2)CC1 [thioperamide] | no displacement ability | no displacement ability |  |  |  |
